In patent publication US8846710B2, “Method of preferentially inducing the biosynthesis of interferon” (3M Innovative Properties Company, priority 2005, dated 2014):

How the values were obtained:
interferon (α) (IFN-α) = assay: Cytokine induction in human cells: IFN-α secreted by PBMC into culture media (ELISA); type: cell-based; details: human PBMC, median where tested in more than one experiment
Outline: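 IFN-α secreted by density-gradient-isolated PBMC (final 2×10^6 cells/mL) was quantified by ELISA after 18–24 h compound exposure at 37 °C, typically 30-0.014 μM in 3-fold steps with ≤1% DMSO. Readings corrected for background and reference-compound variability; lowest concentration above usually 20 pg/mL reported, plus maximal response (pg/mL).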

[1] = system: tumor necrosis factor (α) (TNF-α); assay: Cytokine induction in human cells: TNF-α secreted by PBMC into culture media (ORIGEN M-Series immunoassay); type: cell-based; parameters: key to Maximal Response (pg/mL) TNF / Maximal Response TNF: If any negative values result from background subtraction, the reading is reported as “*”, and is noted as not reliably detectable; details: human PBMC; for Minimum Effective Concentration TNF: median where tested in more than one experiment; for Maximal Response TNF: median
Outline: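 Secreted TNF-α (pg/mL) was quantified by ORIGEN M-Series immunoassay after 18 to 24 hours culture at 37° C of human PBMC (2×10^6 cells/mL final) with test compound (usually 30-0.014 μM, 3-fold series, DMSO ≤1%). Values were corrected for DMSO or experimental background and a reference-compound ratio, giving a minimum effective concentration.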

[2] = Table 11, * = TNF below experimental background of 40 pg/mL
[3] = Table 12, * = below the experimental background of 40 pg/mL

| Compound | Maximal Response IFN (interferon (α) (IFN-α); Table 11) [pg/mL] | Minimum Effective Concentration IFN (interferon (α) (IFN-α); Table 11) [µM] | Minimum Effective Concentration TNF ([1]; Table 11) [µM] | Maximal Response TNF [1, 2] | Maximal Response IFN (interferon (α) (IFN-α); Table 12) [pg/mL] | Maximal Response TNF [1, 3] [pg/mL] | Minimum Effective Concentration IFN (interferon (α) (IFN-α); Table 12) [µM] | Minimum Effective Concentration TNF ([1]; Table 12) [µM] |
| --- | --- | --- | --- | --- | --- | --- | --- | --- |
| COCCc1nc2c(N)nc3ccccc3c2n1CCNC(=O)CC(C)C [Analog 106] | 1204 | 0.12 | 3.33 | 5694 pg/mL |  |  |  |  |
| CCCc1nc2c(N)nc3ccccc3c2n1CC(C)(C)NC(=O)NC(C)C [Analog 107] | 1428 | 1.11 | 3.33 | 6363 pg/mL |  |  |  |  |
| CCOCc1nc2c(N)nc3ccccc3c2n1CC(C)(C)NC(=O)NC(C)C [Analog 108] | 966 | 0.37 | 1.11 | 10587 pg/mL |  |  |  |  |
| COCCc1nc2c(N)nc3ccccc3c2n1CCCNS(=O)(=O)c1ccc(C)cc1 [Analog 109] | 638 | 0.04 | 0.37 | 6169 pg/mL |  |  |  |  |
| COCCc1nc2c(N)nc3ccccc3c2n1CCCNC(=O)c1cc2ccccc2cn1 [Analog 110] | 647 | 0.12 | 1.11 | 6169 pg/mL |  |  |  |  |
| CCOCc1nc2c(N)nc3ccccc3c2n1CC(C)(C)N [Analog 111] | 656 | 0.12 | 0.37 | 11475 pg/mL |  |  |  |  |
| COCCc1nc2c(N)nc3ccccc3c2n1CCCCNC(=O)c1nccc2ccccc12 [Analog 112] | 2127 | 0.014 | 0.04 | 1462 pg/mL |  |  |  |  |
| COCCc1nc2c(N)nc3ccccc3c2n1CCCCNS(=O)(=O)c1ccc(F)cc1 [Analog 113] | 6032 | 0.014 | 0.04 | 3786 pg/mL |  |  |  |  |
| COCCc1nc2c(N)nc3ccccc3c2n1CCCCN [Analog 114] | 127231 | 0.04 | 0.37 | 724 pg/mL |  |  |  |  |
| COCCc1nc2c(N)nc3ccccc3c2n1CCCCNC(=O)c1cnc2ccccc2c1 [Analog 115] | 7545 | 0.014 | 0.04 | 9340 pg/mL |  |  |  |  |
| COCCc1nc2c(N)nc3ccccc3c2n1CCCCNC(=O)c1cnc2ccccc2n1 [Analog 116] | 1129 | 0.014 | 0.04 | 7261 pg/mL |  |  |  |  |
| COCCc1nc2c(N)nc3ccccc3c2n1CCCCCCCCNC(=O)Nc1ccccc1 [Analog 117] | 1257 | 0.014 | 0.12 | 1372 pg/mL |  |  |  |  |
| COCCc1nc2c(N)nc3ccccc3c2n1CCCCCCCCNS(C)(=O)=O [Analog 118] | 1914 | 0.014 | 0.014 | 1853 pg/mL |  |  |  |  |
| COCCc1nc2c(N)nc3ccccc3c2n1CCCCCCCCNC(=O)c1ccccc1 [Analog 119] | 1584 | 0.014 | 0.014 | 1995 pg/mL |  |  |  |  |
| COCCc1nc2c(N)nc3ccccc3c2n1CCOCCN(C)C(=O)c1ccccc1 [Analog 120] | 1394 | 0.04 | 0.37 | 3317 pg/mL |  |  |  |  |
| Cc1nc2c(N)nc3ccccc3c2n1CCCNC(=O)C(C)C [Analog 123] | 3011 | 1.11 | 10 | 405 pg/mL |  |  |  |  |
| CCOCc1nc2c(N)nc3ccccc3c2n1CC(C)(C)CS(C)(=O)=O [Analog 124] | 1924 | 0.12 | 0.37 | 9513 pg/mL |  |  |  |  |
| CCOCc1nc2c(N)nc3ccccc3c2n1CCNC(=O)NC(C)C [Analog 125] | 2045 | 0.37 | 10 | 7512 pg/mL |  |  |  |  |
| Cc1nc2c(N)nc3cccnc3c2n1CC(C)(C)O [Analog 126, 1-(4-amino-2-methyl-1H-imidazo[4,5-c][1,5]naphthyridin-1-yl)-2-methylpropan-2-ol] |  |  |  |  | 1952 | 6519 |  |  |
| CCc1nc2c(N)nc3cccnc3c2n1CC(C)(C)O [Analog 127, 1-(4-amino-2-ethyl-1H-imidazo[4,5-c][1,5]naphthyridin-1-yl)-2-methylpropan-2-ol] |  |  |  |  | 2150 | 3863 |  |  |
| CCCc1nc2c(N)nc3cccnc3c2n1CC(C)(C)O [Analog 128, 1-(4-amino-2-propyl-1H-imidazo[4,5-c][1,5]naphthyridin-1-yl)-2-methylpropan-2-ol] |  |  |  |  | 2484 | 5526 |  |  |
| CCOCc1nc2c(N)nc3cccnc3c2n1CC(C)(C)NC(=O)C1CCCCC1 [Analog 129, N-[2-(4-amino-2-ethoxymethyl-1H-imidazo[4,5-c][1,5]naphthyridin-1-yl)-1,1-dimethylethyl]cyclohexanecarboxamide] |  |  |  |  | 1647 | 8691 |  |  |
| CCOCc1nc2c(N)nc3cccnc3c2n1CC(C)(C)NS(C)(=O)=O [Analog 130, N-[2-(4-amino-2-ethoxoxymethyl-1H-imidazo[4,5-c][1,5]naphthyridin-1-yl)-1,1-dimethylethyl]methanesulfonamide] |  |  |  |  |  |  | 0.04 | 0.37 |
| Cc1nc2c(N)nc3cccnc3c2n1CC(C)(C)F [Analog 131, 1-(2-fluoro-2-methylpropyl)-2-methyl-1H-imidazo[4,5-c][1,5]naphthyridin-4-amine] |  |  |  |  | 2120 | 1679 |  |  |
| CCOCc1nc2c(N)nc3cccnc3c2n1CC(C)C [Analog 132, 2-ethoxymethyl-1-(2-methylpropyl)-1H-imidazo[4,5-c][1,5]naphthyridin-4-amine] |  |  |  |  | 1524 | 3160 |  |  |
| Cc1nc2c(N)nc3cccnc3c2n1CC(C)C [Analog 133, 2-methyl-1-(2-methylpropyl)-1H-imidazo[4,5-c][1,5]naphthyridin-4-amine] |  |  |  |  | 1117 | 699 |  |  |
| Cc1ccc(S(=O)(=O)NCCCn2c(CCO)nc3c(N)nc4ccccc4c32)cc1 [Example 1, N-{3-[4-Amino-2-(2-hydroxyethyl)-1H-imidazo[4,5-c]quinolin-1-yl]propyl}-4-methylbenzenesulfonamide] | 1072 |  |  | 143 pg/mL |  |  |  |  |
| CS(=O)(=O)NCCCCn1c(CCO)nc2c(N)nc3ccccc3c21 [Example 3, N-{4-[4-Amino-2-(2-hydroxyethyl)-1H-imidazo[4,5-c]quinolin 1-yl]butyl}methanesulfonamide] | 2340 |  |  | * |  |  |  |  |
| CC(C)(Cn1c(CO)nc2c(N)nc3ccccc3c21)NC(=O)C1CCCCC1 [Example 5, N-[2-(4-Amino-2-hydroxymethyl-1H-imidazo[4,5-c]quinolin-1-yl)-1,1-dimethylethyl]cyclohexanecarboxamide] | 17274 |  |  | 1130 pg/mL |  |  |  |  |
